# Measurements published in PubChem BioAssay (NCI).
#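 Five concentrations, 48 hours, 96-well plates. GI50 is the concentration that inhibits growth by half. TGI is the concentration that stops growth completely.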 Where a SMILES comes first, the peptide text is derived from it. The star is where a group is joined. Cbz = O=C(OCc1ccccc1)*; Bn = c1ccc(C*)cc1
# Assays:
# Test in all cases: NCI tumour cell line growth inhibition, 48 h
# [1] = test system: TK-10 renal
# [2] = test system: LXFL 529 NSCLC
# [3] = test system: DLD-1 colon
# [4] = test system: 786-0 renal
# [5] = test system: M19-MEL melanoma
# [6] = test system: DMS 273 small cell lung
# [7] = test system: XF 498 CNS
# [8] = test system: HOP-18 NSCLC
# [9] = test system: SNB-78 CNS
# [10] = test system: KM20L2 colon
# [11] = test system: DMS 114 small cell lung
# [12] = test system: MDA-N
# [13] = test system: SK-MEL-28 melanoma
# [14] = test system: SN12K1 renal
# [15] = test system: P388 leukemia
# [16] = test system: P388/ADR leukemia
# [17] = test system: RXF-631 renal
SMILES,TGI [1] [µM],TGI [3] [µM],TGI [4] [µM],TGI [5] [µM],TGI [6] [µM],TGI [7] [µM],TGI [8] [µM],TGI [10] [µM],TGI [12] [µM],TGI [13] [µM],also measured
C[n+]1c2ccccc2c(CNCC(=O)O)c2ccccc21,3.06,2,2.58,16.5,2.74,3.85,22.6,2.44,–,–,TGI [2]: 3.15 µM; TGI [9]: 44.3 µM; TGI [11]: 4.83 µM
COc1ccc2c(c1)C(OC)C1c3c(cc4c(c3-2)OCO4)CCN1C (stereo not given),> 63.8,–,> 40.9,–,–,–,–,–,12,19.8,–
CS(=O)(=O)c1ccc2nc(-c3ccc(O)cc3)sc2c1,29.8,–,–,–,–,–,–,–,34.4,–,–
N=C(N)c1ccc(-c2ccc(-c3ccc4ccccc4c3)s2)s1,4.77,–,–,–,–,–,–,–,–,6.02,GI50 [1]: 2.23 µM; GI50 [13]: 2.25 µM
C=CCNC1=C2C[C@@H](C)C[C@H](OC)[C@H](O)[C@@H](C)/C=C(\C)[C@H](OC(N)=O)[C@@H](OC)/C=C\C=C(/C)C(=O)NC(=CC1=O)C2=O,48.3,–,58.3,–,–,–,–,–,15,32.5,–
COc1ccc(N2C(=O)/C(=C\c3ccccc3)SC2c2cc(OC)c(OC)c(OC)c2)cc1 (stereo not given),> 100,–,–,–,–,–,–,–,44.8,> 100,–
C[P+](c1ccccc1)(c1ccc(Cl)cc1)c1ccc(Cl)cc1,36.9,–,> 100,–,–,–,–,–,–,29,–
O=C(CSCC(=O)N/N=C\c1ccc(O)c(O)c1O)N/N=C\c1ccc(O)c(O)c1O,42,–,4.56,–,–,–,–,–,–,44.2,–
NC(CCP(=O)(O)O)C(=O)O (stereo not given),> 100,–,> 100,–,–,–,–,–,> 100,> 100,–
CCCCSCC(NC(=O)/C=C/c1c(C)[nH]c(=O)[nH]c1=O)C(=O)OC (stereo not given),–,275,–,191,264,–,330,355,–,317,TGI [14]: 173 µM; TGI [15]: 137 µM; TGI [9]: 303 µM; TGI [11]: 271 µM; TGI [16]: > 450 µM
CN(C)CCOc1cc2c(c3ccccc13)-c1ccccc1C2O (stereo not given),–,30.2,–,30.9,29,25.7,29.5,29.9,–,30.2,TGI [14]: 19.5 µM; TGI [15]: > 100 µM; TGI [9]: 31.6 µM; TGI [11]: 26.2 µM; TGI [16]: 33.3 µM
C=CCOCCC(CC=C)C(=O)CC(=O)OC (stereo not given),> 100,> 100,–,–,> 100,> 100,> 100,> 100,–,> 100,–
c1ccc(-c2n(Cc3ccc4ccccc4c3)c3ccccc3[n+]2Cc2ccc3ccccc3c2)cc1,–,–,–,–,–,–,–,–,–,1.31,GI50 [13]: 0.359 µM
CCn1c(=O)c(C(=O)O)c(Cl)c2cc3c(cc21)OCO3,–,> 100,–,> 100,> 100,> 100,> 100,> 100,–,> 100,TGI [14]: > 100 µM; TGI [15]: > 100 µM; TGI [9]: > 100 µM; TGI [16]: > 100 µM
O=C(Nc1ccc(Cl)cc1)c1cc([N+](=O)[O-])ccc1O,> 60.6,> 100,> 46.8,23.5,20,8.72,7.16,> 50.9,–,15.6,TGI [2]: 16.8 µM; TGI [17]: > 45.7 µM; TGI [11]: 6.75 µM
O=CC1C(Cl)=Nc2nc3ccccc3n2C1c1ccccc1 (stereo not given),51.4,–,29.5,–,–,–,–,–,–,30.3,–
Nc1nc(Cl)c2ncn(Cc3cccc(CCl)c3)c2n1,22.1,–,22.6,–,–,–,–,–,–,23.9,–
COC(=O)C(Cc1ccc(O)cc1)NC(=O)C(COCc1ccccc1)NC(=O)OCc1ccccc1 (stereo not given) (Cbz-Ser(Bn)-Tyr-OMe; configuration not given here),35.2,–,–,–,–,–,–,–,31.4,35.9,–
C1CSCCSCSCCS1,> 100,–,–,–,–,–,–,–,> 100,> 100,–
O=C1c2cccc(O)c2C(=O)c2c(O)cccc21,> 100,> 100,> 100,24.3,> 100,> 100,–,> 100,–,> 100,TGI [2]: > 100 µM; TGI [9]: > 100 µM; TGI [11]: > 100 µM
O=[N+]([O-])c1cc(N=Nc2c(O)ccc3cc(S(=O)(=O)O)ccc23)c(O)c([N+](=O)[O-])c1,> 100,–,> 100,–,–,–,–,–,> 100,> 100,–
COc1ccc(-c2oc3cc(OC(C)=O)cc(OC(C)=O)c3c(=O)c2OC)cc1,70.8,–,–,–,–,–,–,–,28.3,35.5,–
CC(=O)OCC1OC(NC(=O)N(CCCl)N=O)C(OC(C)=O)C(OC(C)=O)C1OC(C)=O (stereo not given),–,> 100,–,> 100,> 100,> 100,> 100,> 100,–,> 100,TGI [14]: > 100 µM; TGI [15]: > 100 µM; TGI [9]: > 100 µM; TGI [11]: > 100 µM; TGI [16]: > 100 µM
